“And” between values parts separate entries of the source, which are not always exact repeats. Equal entries are not always repeated. Inconclusive results and toxic doses are left out. Rule for the calls: active = survival T/C of 150% or more; inactive = T/C below 125% in these data.
Tested on: P388 leukemia ip, CD2F1 mice, survival T/C
Experiment: NCI In Vivo Anticancer Drug Screen. Data for tumor model P388 Leukemia (intraperitoneal) in CD2F1 (CDF1) mice
Conditions: endpoint: median survival time, higher = longer survival
In short: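 Mice carrying the transplanted tumor received test compound or vehicle. Survival was recorded in each group, and the value is the treated-group measurement divided by that of the vehicle-treated control group.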

[1] = dose: 60.0 mg/kg/injection, schedule: Q01DX005 (ip), vehicle: saline with Tween-80
[2] = dose: 50.0 mg/kg/injection, schedule: Q01DX009 (ip), vehicle: saline with Tween-80
[3] = dose: 100.0 mg/kg/injection, schedule: Q01DX009 (ip), vehicle: saline with Tween-80
[4] = dose: 200.0 mg/kg/injection, schedule: Q01DX009 (ip), vehicle: saline with Tween-80
[5] = dose: 50.0 mg/kg/injection, schedule: Q01DX005 (ip), vehicle: Klucel (hydroxypropylcellulose) (HPC)
[6] = dose: 100.0 mg/kg/injection, schedule: Q01DX005 (ip), vehicle: Klucel (hydroxypropylcellulose) (HPC)
[7] = dose: 120.0 mg/kg/injection, schedule: Q01DX005 (ip), vehicle: saline with Tween-80
[8] = dose: 240.0 mg/kg/injection, schedule: Q01DX005 (ip), vehicle: saline with Tween-80
[9] = dose: 50.0 mg/kg/injection, schedule: Q01DX005 (ip), vehicle: saline
[10] = dose: 100.0 mg/kg/injection, schedule: Q01DX005 (ip), vehicle: saline
[11] = dose: 200.0 mg/kg/injection, schedule: Q01DX005 (ip), vehicle: saline
[12] = dose: 50.0 mg/kg/injection, schedule: Q01DX009 (ip), vehicle: Klucel (hydroxypropylcellulose) (HPC)
[13] = dose: 100.0 mg/kg/injection, schedule: Q01DX009 (ip), vehicle: Klucel (hydroxypropylcellulose) (HPC)
[14] = dose: 200.0 mg/kg/injection, schedule: Q01DX009 (ip), vehicle: Klucel (hydroxypropylcellulose) (HPC)
[15] = dose: 100.0 mg/kg/injection, schedule: Q01DX009 (ip), vehicle: other
[16] = dose: 200.0 mg/kg/injection, schedule: Q01DX009 (ip), vehicle: other

Measured: T/C

Nc1nnc2nc(CC(=O)c3cccc([N+](=O)[O-])c3Cl)c(=O)[nH]n12
inactive: dose: 15.0 mg/kg/injection, schedule: Q01DX005 (ip), vehicle: saline with Tween-80 106 % of control | dose: 30.0 mg/kg/injection, schedule: Q01DX005 (ip), vehicle: saline with Tween-80 98 % of control | [1] 100 % of control and 103 % of control

CC(C)N1CCN(c2ccncc2S(=O)(=O)N2CCCCC2)CC1
inactive: dose: 50.0 mg/kg/injection, schedule: Q01DX009 (ip), vehicle: saline 89 % of control | dose: 100.0 mg/kg/injection, schedule: Q01DX009 (ip), vehicle: saline 96 % of control | dose: 200.0 mg/kg/injection, schedule: Q01DX009 (ip), vehicle: saline 90 % of control

CC(C)(C)OC(=O)NC(Cc1c[nH]c2ccccc12)C(=O)ON1C(=O)CCC1=O (stereo unspecified)
inactive: dose: 25.0 mg/kg/injection, schedule: Q01DX009 (ip), vehicle: saline with Tween-80 97 % of control | [2] 108 % of control | [3] 110 % of control | [4] 105 % of control

O=C(c1ccccc1)N1OC2C=CC1CC2 (stereo unspecified)
inactive: [2] 104 % of control | [3] 98 % of control | [4] 109 % of control

FC(F)(F)c1nc(SCc2ccc(Cl)cc2)n[nH]1
inactive: dose: 30.0 mg/kg/injection, schedule: Q01DX005 (ip), vehicle: Klucel (hydroxypropylcellulose) (HPC) 103 % of control | dose: 60.0 mg/kg/injection, schedule: Q01DX005 (ip), vehicle: Klucel (hydroxypropylcellulose) (HPC) 96 % of control | dose: 120.0 mg/kg/injection, schedule: Q01DX005 (ip), vehicle: Klucel (hydroxypropylcellulose) (HPC) 98 % of control | dose: 240.0 mg/kg/injection, schedule: Q01DX005 (ip), vehicle: Klucel (hydroxypropylcellulose) (HPC) 102 % of control

CC(=O)OCC1OC(OC2C(COC(C)=O)OC(Sc3ccccc3)C(OC(C)=O)C2OC(C)=O)C(OC(C)=O)C(OC(C)=O)C1OC(C)=O (stereo unspecified)
inactive: [5] 100 % of control | [6] 100 % of control | dose: 100.0 mg/kg/injection, schedule: Q04DX002 (ip), vehicle: Klucel (hydroxypropylcellulose) (HPC) 94 % of control | dose: 200.0 mg/kg/injection, schedule: Q01DX005 (ip), vehicle: Klucel (hydroxypropylcellulose) (HPC) 109 % of control | dose: 200.0 mg/kg/injection, schedule: Q04DX002 (ip), vehicle: Klucel (hydroxypropylcellulose) (HPC) 91 % of control

Cc1[nH]c(=O)cc2c1[nH]c1ccccc12
inactive: dose: 12.5 mg/kg/injection, schedule: Q01DX005 (ip), vehicle: Klucel (hydroxypropylcellulose) (HPC) 96 % of control | [5] 100 % of control | [6] 98 % of control

Cc1cccnc1I
inactive: [1] 98 % of control | [7] 99 % of control | [8] 101 % of control

COC(=O)C1(CC(=O)c2cccc3ccccc23)NC(=S)NC(=O)C1C#N (stereo unspecified)
inactive: [1] 101 % of control | [7] 101 % of control | [8] 102 % of control

O=C1C(Cl)=C(n2c(=O)oc3ccccc32)C(=O)c2ccccc21
inactive: [2] 93 % of control | [3] 98 % of control

COC(=O)c1c[n+]([O-])ccc1OC
inactive: [9] 102 % of control | [10] 106 % of control | [11] 102 % of control

COc1ccc(/C(=N\N)C2=NNC3(CCCCC3)NN2)cc1
inactive: [12] 94 % of control | [13] 93 % of control | [14] 96 % of control

O=[N+]([O-])c1ccc(S(=O)(=O)NCCSSCCNS(=O)(=O)c2ccc([N+](=O)[O-])cc2)cc1
inactive: [12] 90 % of control | [13] 93 % of control | [14] 90 % of control

CC1=C/C(=N\[Se]c2ccccc2)C(=O)C(C)=C1
inactive: dose: 100.0 mg/kg/injection, schedule: Q04DX003 (ip), vehicle: Klucel (hydroxypropylcellulose) (HPC) 100 % of control | dose: 200.0 mg/kg/injection, schedule: Q04DX003 (ip), vehicle: Klucel (hydroxypropylcellulose) (HPC) 91 % of control | dose: 400.0 mg/kg/injection, schedule: Q04DX003 (ip), vehicle: Klucel (hydroxypropylcellulose) (HPC) 96 % of control

Cc1ccc(CNc2cccnc2)cc1
inactive: dose: 100.0 mg/kg/injection, schedule: Q04DX003 (ip), vehicle: saline with Tween-80 104 % of control | dose: 200.0 mg/kg/injection, schedule: Q04DX003 (ip), vehicle: saline with Tween-80 95 % of control | dose: 400.0 mg/kg/injection, schedule: Q04DX003 (ip), vehicle: saline with Tween-80 90 % of control

[CH3][Ge]1([CH3])[CH]=CC(O)[CH2]1 (stereo unspecified)
inactive: [9] 98 % of control | [10] 100 % of control | [11] 100 % of control

C/C=C1\C(=O)OC23C=CC4C(C(=O)OC)C(O)OC(OC12)C43 (stereo unspecified)
inactive: dose: 0.12 mg/kg/injection, schedule: Q01DX009 (ip), vehicle: saline 89 % of control | dose: 0.25 mg/kg/injection, schedule: Q01DX009 (ip), vehicle: Klucel (hydroxypropylcellulose) (HPC) 100 % of control | dose: 0.25 mg/kg/injection, schedule: Q01DX009 (ip), vehicle: saline 104 % of control | dose: 0.5 mg/kg/injection, schedule: Q01DX009 (ip), vehicle: Klucel (hydroxypropylcellulose) (HPC) 99 % of control | dose: 0.5 mg/kg/injection, schedule: Q01DX009 (ip), vehicle: saline 106 % of control | dose: 1.0 mg/kg/injection, schedule: Q01DX009 (ip), vehicle: Klucel (hydroxypropylcellulose) (HPC) 98 % of control | dose: 1.0 mg/kg/injection, schedule: Q01DX009 (ip), vehicle: saline with Tween-80 106 % of control | dose: 1.0 mg/kg/injection, schedule: Q01DX009 (ip), vehicle: saline 101 % of control | dose: 2.0 mg/kg/injection, schedule: Q01DX009 (ip), vehicle: Klucel (hydroxypropylcellulose) (HPC) 98 % of control | dose: 2.0 mg/kg/injection, schedule: Q01DX009 (ip), vehicle: saline with Tween-80 110 % of control | dose: 4.0 mg/kg/injection, schedule: Q01DX009 (ip), vehicle: saline with Tween-80 107 % of control

O=C(O)/C=N/NS(=O)(=O)Cc1ccccc1
active: [15] 185 % of control | [16] 154 % of control and 166 % of control

CCOC1(C)OC2OC(COC(C)=O)C(OC(C)=O)C(OC(C)=O)C2O1 (stereo unspecified)
inactive: dose: 4.0 mg/kg/injection, schedule: Q01DX009 (ip), vehicle: other 95 % of control | dose: 8.0 mg/kg/injection, schedule: Q01DX009 (ip), vehicle: other 99 % of control | dose: 16.0 mg/kg/injection, schedule: Q01DX009 (ip), vehicle: other 102 % of control | dose: 32.0 mg/kg/injection, schedule: Q01DX009 (ip), vehicle: other 104 % of control | dose: 50.0 mg/kg/injection, schedule: Q01DX009 (ip), vehicle: other 95 % of control | dose: 64.0 mg/kg/injection, schedule: Q01DX009 (ip), vehicle: other 98 % of control | [15] 100 % of control | [16] 104 % of control | dose: 400.0 mg/kg/injection, schedule: Q01DX009 (ip), vehicle: other 95 % of control

NC(CC(=O)O)c1ccccc1 (stereo unspecified)
inactive: [2] 107 % of control | [3] 102 % of control | [4] 102 % of control | dose: 400.0 mg/kg/injection, schedule: Q01DX009 (ip), vehicle: saline with Tween-80 90 % of control

COc1ccc(N=Nc2ccc(N)c3cccnc23)c(OC)c1
inactive: dose: 100.0 mg/kg/injection, schedule: Q04DX002 (ip), vehicle: saline with Tween-80 97 % of control | dose: 200.0 mg/kg/injection, schedule: Q04DX002 (ip), vehicle: saline with Tween-80 106 % of control | dose: 400.0 mg/kg/injection, schedule: Q04DX002 (ip), vehicle: saline with Tween-80 92 % of control

O=C(O)CN=C1C=CC(=NCC(=O)O)C=C1
inactive: [5] 109 % of control | [6] 108 % of control

COc1ccc2c(c1OC)C(=O)O[C@@H]2[C@H]1c2cc3c(cc2CCN1C)OCO3
inactive: dose: 10.0 mg/kg/injection, schedule: Q01DX009 (ip), vehicle: saline 108 % of control | dose: 20.0 mg/kg/injection, schedule: Q01DX009 (ip), vehicle: saline 114 % of control | dose: 40.0 mg/kg/injection, schedule: Q01DX009 (ip), vehicle: saline 108 % of control | dose: 80.0 mg/kg/injection, schedule: Q01DX009 (ip), vehicle: saline 99 % of control

Reference: PubChem BioAssay AID330 (DTP/NCI, 2004)
